Measured values reported in patent US7807675B2, “Hyaluronic acid-methotrexate conjugate” (priority 2004, dated 2010).

Tests used:
[1] = system: mBSA-induced monoarthritis model; assay: Suppressive effect on knee joint swelling in mBSA-induced monoarthritis model; format: in vivo, rat; conditions: for AUC (% of control) (mean ± SEM): AUC of knee joint swelling, control = HA-treated group, LEW/Crj rat, 50 μL into right knee joint 7 and 1 day before and 7 days after inducing arthritis
Protocol: An in vivo synovitis-suppressing effect of each HA-MTX conjugate of the invention was assessed on the basis of a suppressive effect on knee joint swelling in a methylated bovine serum albumin (mBSA)-induced monoarthritis model of rat. Since the mBSA-induced arthritis model employed in this experimental example is widely used as an antigen-induced arthritis model, and known to develop synovitis (Sven E. Andersson, et al., The Journal of Rheumatology (1998) 25: 9, 1772-7), the in vivo knee joint swelling-suppressing effect observed in this model conceivably represents a synovitis-suppressing effect. The compounds of the invention suppressing synovitis in vivo are useful as therapeutic drugs for joint diseases accompanied by synovitis (RA, OA, and the like).
The animal used was the LEW/Crj rat (6-week old male, from Charles River Laboratories Japan, Inc.). Into the flank of the rat was subcutaneously injected 0.5 mL of an emulsion prepared from a 2 mg/mL mBSA (Calbiochem) aqueous solution and an equal amount of Freund's complete adjuvant (Difco) 21 and 14 days before inducing arthritis. The arthritis was induced by administering 50 μL of a 2 mg/mL mBSA aqueous solution into the right knee joint. The left knee joint was untreated, and served as control in each individual. Each test substance (sterile aqueous solution) and the control drug hyaluronic acid were each administered into the right knee joint in an amount of 50 μL 7 and 1 day before and 7 days after inducing arthritis.
The determination of knee joint swelling involved measuring the widths of both knee joints with calipers to define the left/right difference (right knee diameter−left knee diameter) as a knee joint swelling. The width of each knee joint was measured at a frequency of twice a week from immediately before inducing arthritis to two weeks later to calculate AUC (an abbreviation for Area Under the Curve; here, it means an area under a curve with time for the joint swelling) from the transition thereof with time. At each measurement, the mean and standard deviation of AUC were calculated to perform an unpaired t-test between each test substance-treated group and the HA-treated group, and significant difference was judged to be present if the probability level is less than 5%. Statistical analysis used SAS version 6.12 or 8.02 (SAS Institute Japan). In addition, the AUC of each test substance was calculated, using that in the HA-treated group as a control, as a relative value (% of control) therefor.
To verify the usefulness of the HA-MTX conjugate of the invention, the suppressive effect on joint swelling was compared, in accordance with the method of Example 3, among: 1) a group treated with the HA-MTX conjugate (sterile aqueous solution) prepared in Example 3-10; 2) a group treated with a solution containing MTX of an amount equal to that of MTX contained in the HA-MTX conjugate; and 3) a group of treated with a mixture (HA+MTX) of MTX and hyaluronic acid (HA) of amounts equal to those contained in the conjugate. HA and vehicle (2 mM phosphate buffer, 0.9% NaCl) was used as controls. In this Experimental Example, Suvenyl (SVE, Chugai Pharmaceutical Co., Ltd.) was used as HA. The time course of knee joint swelling in this test is shown in FIG. 1, and the AUC thereof in FIG. 2.

[2] = system: human synovial cells derived from OA patients (HFLS-OA); assay: Suppressive effect on proliferation of human synovial cells (HFLS-OA) stimulated by TNF-α; format: cell-based; conditions: TNF-α 10 ng/mL, 5 days, [3H]-deoxyuridine uptake, concentration calculated as MTX
Excerpt: (§1) Effects of the HA-MTX conjugates of the invention on cell proliferation induced by TNF-α stimulation were examined using human synovial cells (HFLS). The main lesion in rheumatoid arthritis (RA) occurs in the synovial tissue, and one of the features of RA is known to be that synovial cells abnormally proliferate to form a granulation tissue (pannus) and thereby destroy the cartilage and bone of the joint. Secondary synovitis is also observed in osteoarthritis (OA). […] Thus, a compound inhibiting the proliferation of synovial cells stimulated by an inflammatory cytokine, TNF-α, becomes a drug for suppressing the progression of the pathologic conditions of, or for treating RA and OA.
(§2) The sterile aqueous solutions of the HA-MTX conjugates in Example 3 were used as test substances. As HFLS, human synovial cells derived from RA patients (HFLS-RA, CA404-05, Lot No.: 1493) and human synovial cells derived from OA patients (HFLS-OA, CA400-05, Lot No.: 1442) were purchased from Cell Applications Ins for use.
(§3) HFLS was seeded at 5,000 cells/well on a 96-well plate (Falcon) and cultured for 3 hours in Iscove's modified Dulbecco's medium (IMDM) containing 5% FBS and 1× Antibiotic-Antimycotic (GIBOC). After cellular attachment, TNF-α (final concentration: 10 ng/mL) and each HA-MTX conjugate at each concentration was added, followed by cultivation for 5 days. Two days before the end of culture, was added 37 kBq/well of [^3H]-deoxyuridine in the cells (MORAVEK), followed by determining the uptake quantity (radioactivity) of [^3H]-deoxyuridine using a scintillation counter. Cells were recovered by unsticking them with 0.05% trypsin-0.2% EDTA.
(§4) Radioactivity determined in each of the experiments with each test substance was calculated as a relative value (% of control), using, as control, radioactivity in the group of cells cultured without adding any test substance. Since the concentration of a free carboxyl group is 2.49×10^−3 mol/L (1 g/401/L; 401 is the molecular weight of N-acetylglucosamine+glucuronic acid) for each 1 mg/mL of hyaluronic acid, the MTX concentration in each HA-MTX was calculated by multiplying the value by the conjugation rate of MTX. (For 1 mg/mL of HA-MTX conjugate with a conjugation rate of MTX of 1%, the concentration of MTX was 2.49×10^−5 mol/L) The value obtained was used to calculate the activity of inhibiting cell proliferation (IC50 value) by a 4-parameter logistic method (analysis software: GraphPad Prism 3.02 and 4.02).

[3] = system: human synovial cells derived from RA patients (HFLS-RA); assay: Suppressive effect on proliferation of human synovial cells (HFLS-RA) stimulated by TNF-α; format: cell-based; conditions: TNF-α 10 ng/mL, 5 days, [3H]-deoxyuridine uptake, concentration calculated as MTX
Excerpt: as §1, §2, §3, §4

Row | Compound | alleviating effect on synovitis ([1]; Experimental Example 4, arthritis model, amounts equal to those in the conjugate of Example 3-10) | IC50 [2] [nM] | IC50 [3] [nM] | AUC (% of control) (mean ± SEM) [1] | suppressive effect on the joint swelling ([1]; Experimental Example 4, compared to MTX alone or the mixture of MTX and HA in equal amounts, FIGS. 1 and 2)
1 | CN(Cc1cnc2nc(N)nc(N)c2n1)c1ccc(C(=O)N[C@@H](CCC(=O)O)C(=O)O)cc1 [MTX alone, methotrexate] | neither MTX alone nor the mixture of HA and MTX had a sufficient alleviating effect on synovitis | 310 | 110 |  | 
2 | MTX-α-Ile-NHC10H20O3NHCO—O—[HA] [Example 3-16] |  | 230 |  | 65.5 ± 4.4 % of control | 
3 | MTX-α-PheGly-NHC10H20O3NHCO—O—[HA] [Example 3-15] |  | 450 |  | 50.1 ± 4.9 % of control | 
4 | MTX-α-PhePhe-NHC10H20O3NHCO—O—[HA] [Example 3-1] |  |  | 1200 |  | 
5 | MTX-α-PhePhe-NHC10H20O3NHCO—O—[HA] [Example 3-2] |  |  | 460 |  | 
6 | MTX-α-PhePhe-NHC10H20O3NHCO—O—[HA] [Example 3-3] |  |  | 96 | 59.7 ± 5.4 % of control | 
7 | MTX-α-PhePhe-NHC10H20O3NHCO—O—[HA] [Example 3-4] |  |  |  | 53.6 ± 5.4 % of control | 
8 | MTX-α-PhePhe-NHC10H20O3NHCO—O—[HA] [Example 3-5] |  |  |  | 46.6 ± 4.0 % of control | 
9 | MTX-α-PhePhe-NHC10H20O3NHCO—O—[HA] [Example 3-6] |  | 1400 |  | 69.7 ± 7.2 % of control | 
10 | MTX-α-PhePhe-NHC10H20O3NHCO—O—[HA] [Example 3-7] |  | 410 |  | 47.7 ± 4.3 % of control | 
11 | MTX-α-PhePhe-NHC10H20O3NHCO—O—[HA] [Example 3-8] |  | 140 |  |  | 
12 | MTX-α-PhePhe-NHC10H20O3NHCO—O—[HA] [Example 3-9] |  | 180 |  | 48.4 ± 2.9 % of control | 
13 | MTX-α-PhePhe-NHC10H20O3NHCO—O—[HA] [Example 3-10] |  | 77 |  | 42.3 ± 4.8 % of control | markedly strong suppressive effect on the joint swelling in the arthritis model compared to that of MTX alone or the mixture of MTX and HA
14 | MTX-α-PhePhe-NHC10H20O3NHCO—O—[HA] [Example 3-11] |  | 33000 |  | 67.1 ± 8.0 % of control | 
15 | MTX-α-PhePhe-NHC10H20O3NHCO—O—[HA] [Example 3-12] |  | 2000 |  | 49.2 ± 1.2 % of control | 
16 | MTX-α-PhePhe-NHC10H20O3NHCO—O—[HA] [Example 3-13] |  | 290 |  | 42.0 ± 4.5 % of control | 
17 | MTX-α-PhePhe-NHC10H20O3NHCO—O—[HA] [Example 3-14] |  | 9700 |  |  | 
